Measured values as given in ChEMBL document CHEMBL4477227, “Synthesis and antibacterial evaluation of macrocyclic diarylheptanoid derivatives” (Bioorg Med Chem Lett, 2016).
Converted amounts (≈) assume the structure as drawn.

How the values were obtained:
[1] = test system: Escherichia coli; assay: Antibacterial activity against Escherichia coli harboring TolC deletion mutant by microbroth dilution method; assay type: functional
[2] = test system: Escherichia coli; assay: Antibacterial activity against Escherichia coli K-12 by microbroth dilution method; assay type: functional
[3] = test system: Proteus vulgaris; assay: Antibacterial activity against Proteus vulgaris ATCC 33420 by microbroth dilution method; assay type: functional
[4] = test system: Enterococcus faecalis; assay: Antibacterial activity against Enterococcus faecalis ATCC 33186 by microbroth dilution method; assay type: functional
[5] = test system: Staphylococcus aureus; assay: Antibacterial activity against methicillin-resistant Staphylococcus aureus NRS70 by microbroth dilution method; assay type: functional
[6] = test system: Staphylococcus aureus; assay: Antibacterial activity against methicillin-sensitive Staphylococcus aureus ATCC 29213 by microbroth dilution method; assay type: functional
[7] = test system: Streptococcus pneumoniae; assay: Antibacterial activity against Streptococcus pneumoniae R6 by microbroth dilution method; assay type: functional
[8] = test system: Proteus mirabilis; assay: Antibacterial activity against Proteus mirabilis ATCC 25933 by microbroth dilution method; assay type: functional
[9] = test system: Mycobacterium tuberculosis; assay: Antitubercular activity against Mycobacterium tuberculosis H37Rv by microbroth dilution method; assay type: functional
[10] = test system: Bacillus anthracis; assay: Antibacterial activity against Bacillus anthracis Sterne 34F2 by microbroth dilution method; assay type: functional
[11] = test system: Streptococcus pyogenes; assay: Antibacterial activity against Streptococcus pyogenes ATCC 700294 by microbroth dilution method; assay type: functional
[12] = test system: Acinetobacter baumannii; assay: Antibacterial activity against Acinetobacter baumannii ATCC 19606 by microbroth dilution method; assay type: functional, ATCC 19606 = CIP 70.34 = JCM 6841
[13] = test system: Burkholderia cepacia; assay: Antibacterial activity against Burkholderia cepacia ATCC 25416 by microbroth dilution method; assay type: functional
[14] = test system: Pseudomonas aeruginosa; assay: Antibacterial activity against Pseudomonas aeruginosa PAO1 by microbroth dilution method; assay type: functional
[15] = test system: Bacillus subtilis; assay: Antibacterial activity against Bacillus subtilis ATCC 23857 by microbroth dilution method; assay type: functional
[16] = test system: Klebsiella pneumoniae; assay: Antibacterial activity against Klebsiella pneumoniae ATCC 33495 by microbroth dilution method; assay type: functional
[17] = Escherichia coli, read-out: MIC
[18] = Enterococcus faecalis, ATCC 33186, read-out: MIC
[19] = Staphylococcus aureus, NRS70, read-out: MIC
[20] = Staphylococcus aureus, ATCC 29213, read-out: MIC
[21] = Streptococcus pneumoniae, R6, read-out: MIC
[22] = Mycobacterium tuberculosis, H37Rv, read-out: MIC
[23] = Bacillus anthracis, Sterne 34F2, read-out: MIC
[24] = Streptococcus pyogenes, ATCC 700294, read-out: MIC
[25] = Acinetobacter baumannii, ATCC 19606 = CIP 70.34 = JCM 6841, read-out: MIC
[26] = Bacillus subtilis, ATCC 23857, read-out: MIC

## COc1ccc2cc1Oc1cc(ccc1OC)CCC(NC(=O)/C=C/c1ccc(F)cc1)CCCC2 (stereo not drawn)
[1]; [17]
  MIC: > 100 mg/L
[2]
  MIC: > 100 mg/L
[3]
  MIC: > 100 mg/L
[4]; [18]
  MIC: > 100 mg/L
[5]; [19]
  MIC: > 100 mg/L
[6]; [20]
  MIC: > 100 mg/L
[7]; [21]
  MIC: > 100 mg/L
[8]
  MIC: > 100 mg/L
[9]; [22]
  MIC: > 100 mg/L
[10]; [23]
  MIC: > 100 mg/L
[11]; [24]
  MIC: > 100 mg/L
[12]; [25]
  MIC: > 100 mg/L
[13]
  MIC: > 100 mg/L
[14]
  MIC: > 100 mg/L
[15]; [26]
  MIC: > 100 mg/L
[16]
  MIC: > 100 mg/L

## COc1ccc2cc1Oc1cc(ccc1OC)CCC(NCCc1ccccn1)CCCC2 (stereo not drawn)
[1]; [17]
  MIC: 100 mg/L (≈ 224 µM)
[2]
  MIC: > 100 mg/L
[3]
  MIC: > 100 mg/L
[4]; [18]
  MIC: > 100 mg/L
[5]; [19]
  MIC: > 100 mg/L
[6]; [20]
  MIC: > 100 mg/L
[7]; [21]
  MIC: 100 mg/L (≈ 224 µM)
[8]
  MIC: > 100 mg/L
[9]; [22]
  MIC: 100 mg/L (≈ 224 µM)
[10]; [23]
  MIC: > 100 mg/L
[11]; [24]
  MIC: > 100 mg/L
[12]; [25]
  MIC: > 100 mg/L
[13]
  MIC: > 100 mg/L
[14]
  MIC: > 100 mg/L
[15]; [26]
  MIC: 100 mg/L (≈ 224 µM)
[16]
  MIC: > 100 mg/L

## COc1ccc2cc1Oc1cc(ccc1OC)CCC(OS(=O)(=O)c1ccc(OC(F)(F)F)cc1)CCCC2 (stereo not drawn)
[1]; [17]
  MIC: > 100 mg/L
[2]
  MIC: > 100 mg/L
[3]
  MIC: > 100 mg/L
[4]; [18]
  MIC: 50 mg/L (≈ 88.2 µM)
[5]; [19]
  MIC: 50 mg/L (≈ 88.2 µM)
[6]; [20]
  MIC: > 100 mg/L
[7]; [21]
  MIC: > 100 mg/L
[8]
  MIC: > 100 mg/L
[9]; [22]
  MIC: > 100 mg/L
[10]; [23]
  MIC: 100 mg/L (≈ 176 µM)
[11]; [24]
  MIC: > 100 mg/L
[12]; [25]
  MIC: > 100 mg/L
[13]
  MIC: > 100 mg/L
[14]
  MIC: > 100 mg/L
[15]; [26]
  MIC: > 100 mg/L
[16]
  MIC: > 100 mg/L

## COc1ccc2cc1Oc1cc(ccc1OC)CCC(OS(C)(=O)=O)CCCC2 (stereo not drawn)
[1]; [17]
  MIC: > 100 mg/L
[2]
  MIC: > 100 mg/L
[3]
  MIC: > 100 mg/L
[4]; [18]
  MIC: > 100 mg/L
[5]; [19]
  MIC: > 100 mg/L
[6]; [20]
  MIC: > 100 mg/L
[7]; [21]
  MIC: > 100 mg/L
[8]
  MIC: > 100 mg/L
[9]; [22]
  MIC: > 100 mg/L
[10]; [23]
  MIC: > 100 mg/L
[11]; [24]
  MIC: > 100 mg/L
[12]; [25]
  MIC: > 100 mg/L
[13]
  MIC: > 100 mg/L
[14]
  MIC: > 100 mg/L
[15]; [26]
  MIC: > 100 mg/L
[16]
  MIC: > 100 mg/L

## O=C(N[C@H](CO)[C@H](O)c1ccc([N+](=O)[O-])cc1)C(Cl)Cl [CHLORAMPHENICOL]
[1]; [17]
  MIC: 0.78 mg/L (≈ 2.41 µM)
[2]
  MIC: 6.25 mg/L (≈ 19.3 µM)
[3]
  MIC: > 100 mg/L
[5]; [19]
  MIC: 3.12 mg/L (≈ 9.67 µM)
[6]; [20]
  MIC: 6.25 mg/L (≈ 19.3 µM)
[7]; [21]
  MIC: 1.56 mg/L (≈ 4.83 µM)
[8]
  MIC: > 100 mg/L
[10]; [23]
  MIC: 3.12 mg/L (≈ 9.67 µM)
[11]; [24]
  MIC: 3.12 mg/L (≈ 9.67 µM)
[12]; [25]
  MIC: 50 mg/L (≈ 155 µM)
[13]
  MIC: > 100 mg/L
[14]
  MIC: > 100 mg/L
[15]; [26]
  MIC: 6.25 mg/L (≈ 19.3 µM)
[16]
  MIC: > 100 mg/L

## COc1ccc2cc1Oc1cc(ccc1OC)CCC(N[C@@H]1CCCc3ccccc31)CCCC2 (stereo in doubt; 25)
[1]
  MIC: 100 mg/L (≈ 212 µM)
[2]
  MIC: > 100 mg/L
[3]
  MIC: > 100 mg/L
[6]; [20]
  MIC: > 100 mg/L
[8]
  MIC: > 100 mg/L
[9]; [22]
  MIC: > 100 mg/L
[13]
  MIC: > 100 mg/L
[14]
  MIC: > 100 mg/L
[15]
  MIC: 6.25 mg/L (≈ 13.3 µM)
[16]
  MIC: > 100 mg/L

## COc1ccc2cc1Oc1cc(ccc1OC)CCC(N[C@@H]1CCCc3ccccc31)CCCC2 (stereo in doubt; 26)
[1]
  MIC: 25 mg/L (≈ 53 µM)
[7]
  MIC: 50 mg/L (≈ 106 µM)
[9]
  MIC: 50 mg/L (≈ 106 µM)
[12]
  MIC: >100 mg/L
[15]
  MIC: 25 mg/L (≈ 53 µM)

## COc1ccc2cc1Oc1cc(ccc1OC)CCC(N[C@H]1CCCc3ccccc31)CCCC2 (stereo in doubt; 27)
[1]
  MIC: >100 mg/L
[2]
  MIC: > 100 mg/L
[3]
  MIC: > 100 mg/L
[4]; [18]
  MIC: > 100 mg/L
[5]; [19]
  MIC: > 100 mg/L
[7]; [21]
  MIC: > 100 mg/L
[8]
  MIC: > 100 mg/L
[10]; [23]
  MIC: > 100 mg/L
[11]; [24]
  MIC: > 100 mg/L
[12]; [25]
  MIC: > 100 mg/L
[13]
  MIC: > 100 mg/L
[14]
  MIC: > 100 mg/L
[15]; [26]
  MIC: > 100 mg/L
[16]
  MIC: > 100 mg/L

## COc1ccc2cc1Oc1cc(ccc1OC)CCC(N[C@H]1CCCc3ccccc31)CCCC2 (stereo in doubt; 28)
[1]
  MIC: 25 mg/L (≈ 53 µM)
[4]
  MIC: >100 mg/L
[5]
  MIC: >100 mg/L
[6]
  MIC: >100 mg/L
[7]
  MIC: >100 mg/L
[10]
  MIC: >100 mg/L
[11]
  MIC: >100 mg/L
[15]
  MIC: >100 mg/L

## CCCCCCNC1CCCCc2ccc(OC)c(c2)Oc2cc(ccc2OC)CC1 (stereo not drawn)
[9]; [22]
  MIC: 12.5 to 50 mg/L (≈ 29.4 to 117 µM)

## COc1ccc2cc1Oc1cc(ccc1OC)CCC(NCc1ccccc1)CCCC2 (stereo not drawn)
[9]; [22]
  MIC: 12.5 to 50 mg/L (≈ 29 to 116 µM)

## COc1ccc2cc1Oc1cc(ccc1OC)CCC(NCCc1ccccc1)CCCC2 (stereo not drawn)
[9]; [22]
  MIC: 12.5 to 50 mg/L (≈ 28.1 to 112 µM)
